Drawing on PubChem BioAssay (NCI), this text covers TGI for 21 compounds.

Some test systems named below: M14 melanoma; HOP-62 NSCLC; SNB-19 CNS; EKVX NSCLC; DMS 273 small cell lung; XF 498 CNS; NCI-H23 lung; SNB-78 CNS; KM20L2 colon; NCI-H226 lung; HS 578T breast; T-47D breast.
Common to all, as to experiment: NCI tumour cell line growth inhibition, 48 h

Structures are written as SMILES.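 Tested at 5 concentrations; 48 h exposure; 96-well plates; endpoints linearly interpolated, else capped at highest concentration. TGI is the concentration that stops growth completely.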

As for `Cc1ccccc1C(CCCO)C(=O)O` (centres undefined), the TGI in the assay with M14 melanoma, with HOP-62 NSCLC, in the assay on SNB-19 CNS, in the assay with EKVX NSCLC, in the assay with DMS 273 small cell lung and in the assay with XF 498 CNS was above 100 µM throughout. Besides, the TGI in the assay with NCI-H23 lung and in the assay with SNB-78 CNS was above 100 µM in each case.

As for `O=C(c1ccccc1)[C@H]1Nc2ccc(Cl)cc2[C@H]2CCC[C@@H]12`, the TGI is 29.2 µM in the assay on M14 melanoma; above 100 µM in the assay on KM20L2 colon; above 100 µM in the assay with HOP-62 NSCLC; 63.3 µM in the assay with NCI-H226 lung; above 100 µM in the assay with SNB-19 CNS; above 100 µM in the assay on DMS 273 small cell lung. Also, the TGI with XF 498 CNS is 54.2 µM; in the assay with NCI-H23 lung, 78 µM; with SNB-78 CNS it was above 100 µM.

Regarding `CCOC(=O)/C(=C/c1ccccn1)C(=O)c1ccccc1`, the TGI with M14 melanoma was 29.3 µM; with KM20L2 colon, 51.6 µM; with HOP-62 NSCLC, 33 µM; in the assay with NCI-H226 lung, 31.8 µM; with SNB-19 CNS, 31.8 µM; with EKVX NSCLC it was 42.8 µM. In addition, the TGI with DMS 273 small cell lung came to 27.3 µM; in the assay with XF 498 CNS, 30.3 µM; in the assay with NCI-H23 lung, 30.5 µM; in the assay on SNB-78 CNS it was 38.9 µM.

On to `CCOC(=O)C1=C(NC)OCC1=O`, for which the TGI in the assay on M14 melanoma, in the assay with KM20L2 colon, with HOP-62 NSCLC, with NCI-H226 lung, in the assay on SNB-19 CNS and in the assay on EKVX NSCLC was above 100 µM each time. For the same compound, the TGI in the assay with DMS 273 small cell lung, with XF 498 CNS, in the assay with NCI-H23 lung and in the assay on SNB-78 CNS was above 100 µM each time.

For the compound `CC(C)Cc1ccc(C(C)/C=C2\CCC(CN(C)C)C2=O)cc1` (centres undefined), the TGI is 8.45 µM in the assay with HS 578T breast; 28.5 µM in the assay on M14 melanoma; 51.4 µM in the assay on KM20L2 colon; 25 µM in the assay on HOP-62 NSCLC; 46.4 µM in the assay on NCI-H226 lung; 26.3 µM in the assay with SNB-19 CNS. Moreover, the TGI in the assay with EKVX NSCLC worked out at 40.2 µM; in the assay on XF 498 CNS, 36.5 µM; with NCI-H23 lung, 34 µM; in the assay on SNB-78 CNS it was 36.3 µM.

Turning to `N#CC1CC(c2ccccc2)Nc2cc(Cl)ccc2N1` (centres undefined), the TGI in the assay with M14 melanoma, in the assay on KM20L2 colon, in the assay with HOP-62 NSCLC, in the assay with NCI-H226 lung, in the assay on SNB-19 CNS and with EKVX NSCLC was above 100 µM in each case. In addition, the TGI is above 100 µM in the assay on DMS 273 small cell lung, 92 µM in the assay with XF 498 CNS, above 83.7 µM in the assay on NCI-H23 lung and above 100 µM with SNB-78 CNS.

For the compound `CCc1cccc(CC)c1NC(=O)/C(Cl)=C(/Cl)C(=O)O`, the TGI was 35.9 µM in the assay with M14 melanoma; above 71 µM in the assay with KM20L2 colon; above 100 µM in the assay on HOP-62 NSCLC; above 100 µM with NCI-H226 lung; above 100 µM with SNB-19 CNS; above 68.5 µM with EKVX NSCLC. Moreover, the TGI is above 85.8 µM in the assay on DMS 273 small cell lung, 46.5 µM in the assay on XF 498 CNS, 66.5 µM in the assay with NCI-H23 lung and 65.8 µM in the assay with SNB-78 CNS.

With `COc1ccc2nc(NC(=O)C(=O)CC(=O)c3ccc([N+](=O)[O-])cc3)sc2c1`, the TGI in the assay on M14 melanoma, in the assay with KM20L2 colon, with HOP-62 NSCLC, in the assay on NCI-H226 lung, with SNB-19 CNS and with EKVX NSCLC was above 100 µM in each case. Moreover, the TGI with DMS 273 small cell lung, in the assay on XF 498 CNS and in the assay on NCI-H23 lung was above 100 µM in each case.

In the case of `COc1ccc(-c2c(C3=NCCCN3)nnn2-c2ccccc2)cc1`, the TGI in the assay with M14 melanoma, in the assay with KM20L2 colon, in the assay with HOP-62 NSCLC, in the assay with NCI-H226 lung, with SNB-19 CNS and in the assay on EKVX NSCLC was above 100 µM in each case. The TGI in the assay on DMS 273 small cell lung, in the assay with XF 498 CNS, with NCI-H23 lung and in the assay on SNB-78 CNS was above 100 µM in each case.

As to `CCCC(=O)CC(C)C(=O)C(=O)NC12CC3CC(CC(C3)C1)C2` (centres undefined), the TGI in the assay with M14 melanoma, in the assay with KM20L2 colon, in the assay on HOP-62 NSCLC, in the assay with NCI-H226 lung, with SNB-19 CNS and in the assay on EKVX NSCLC was above 100 µM each time. In addition, the TGI in the assay with DMS 273 small cell lung, in the assay on XF 498 CNS, with NCI-H23 lung and with SNB-78 CNS was above 100 µM throughout.

On to `COc1ccc2c(C(=O)O)cc3ccccc3c2c1OC`, for which the TGI in the assay with M14 melanoma was 30.7 µM; in the assay on KM20L2 colon, 58.1 µM; in the assay on HOP-62 NSCLC, above 100 µM; with NCI-H226 lung, 71.9 µM; with SNB-19 CNS, above 100 µM; in the assay with EKVX NSCLC, 40.8 µM. For the same compound, the TGI in the assay on DMS 273 small cell lung was 53.4 µM; in the assay on XF 498 CNS, 29.2 µM; in the assay with NCI-H23 lung, 48 µM; with SNB-78 CNS it was 33.4 µM.

As for `Cn1c(=O)c2nc3sc4c(n3c2n(C)c1=O)C(=O)c1ccccc1C4=O`, the TGI in the assay on HS 578T breast is 51.5 µM; with M14 melanoma it was above 100 µM; with KM20L2 colon, above 100 µM; in the assay on HOP-62 NSCLC, above 53.3 µM; in the assay on NCI-H226 lung, above 87.2 µM; with SNB-19 CNS, above 66 µM. The TGI was above 100 µM in the assay on EKVX NSCLC; above 100 µM with DMS 273 small cell lung; above 100 µM with XF 498 CNS; above 75.1 µM in the assay with NCI-H23 lung; 23.6 µM with T-47D breast; above 100 µM in the assay with SNB-78 CNS.

For `O=C1NC(=O)C2C(=O)NC(=O)C1C2Cc1ccco1` (centres undefined), the TGI with M14 melanoma, in the assay on KM20L2 colon, in the assay with NCI-H226 lung, in the assay with SNB-19 CNS, with EKVX NSCLC and with DMS 273 small cell lung was above 100 µM throughout. The TGI in the assay with XF 498 CNS, with NCI-H23 lung and in the assay on SNB-78 CNS was above 100 µM each time.

As to `CC(=O)OCC(=O)[C@@]1(O)CC[C@H]2[C@@H]3C[C@H](C)C4=CC(=O)C=C[C@]4(C)[C@@]3(F)[C@@H](O)C[C@@]21C`, the TGI in the assay with M14 melanoma, in the assay on KM20L2 colon, in the assay with HOP-62 NSCLC, with NCI-H226 lung, in the assay with SNB-19 CNS and with EKVX NSCLC was above 100 µM throughout. Besides, the TGI in the assay on DMS 273 small cell lung, with XF 498 CNS, in the assay on NCI-H23 lung and in the assay with SNB-78 CNS was above 100 µM each time.

In the case of `c1ccc(C(c2ccccc2)c2ccccn2)cc1`, the TGI in the assay on M14 melanoma, in the assay on KM20L2 colon, in the assay with HOP-62 NSCLC, with NCI-H226 lung, in the assay with SNB-19 CNS and in the assay on EKVX NSCLC was above 100 µM throughout. Besides, the TGI in the assay on DMS 273 small cell lung, with XF 498 CNS, in the assay on NCI-H23 lung and with SNB-78 CNS was above 100 µM each time.

With `O=C1N[C@@H]2CCCC[C@@H]2C12CCCCC2`, the TGI in the assay on M14 melanoma, in the assay with KM20L2 colon, with HOP-62 NSCLC, with NCI-H226 lung, with SNB-19 CNS and in the assay on EKVX NSCLC was above 100 µM each time. Moreover, the TGI in the assay with XF 498 CNS, with NCI-H23 lung and in the assay with SNB-78 CNS was above 100 µM throughout.

Take `COc1cc(/C=C/c2csnn2)cc(OC)c1OC`: the TGI in the assay on M14 melanoma, in the assay with HOP-62 NSCLC, in the assay on NCI-H226 lung, in the assay with SNB-19 CNS, in the assay on EKVX NSCLC and with XF 498 CNS was above 100 µM in each case. Also, the TGI in the assay on NCI-H23 lung and with SNB-78 CNS was above 100 µM throughout.

As for `CC(=O)Nc1ccc(C2CC(c3ccc([N+](=O)[O-])cc3)=Nc3ccccc3S2=O)cc1` (centres undefined), the TGI in the assay on M14 melanoma is above 100 µM; with KM20L2 colon it was 57.5 µM; in the assay on HOP-62 NSCLC it was 49.8 µM; in the assay on NCI-H226 lung, 64.5 µM; with SNB-19 CNS, above 100 µM; in the assay with EKVX NSCLC, 97.5 µM. For the same compound, the TGI in the assay with DMS 273 small cell lung turned out to be 35.8 µM; in the assay with XF 498 CNS, 55.8 µM; in the assay on NCI-H23 lung it was 53.9 µM.

For the compound `O=NN(CCCl)C(=O)NC1CCC(CC(=O)O)CC1` (centres undefined), the TGI in the assay with M14 melanoma, with KM20L2 colon, with HOP-62 NSCLC, in the assay with NCI-H226 lung, with SNB-19 CNS and in the assay with EKVX NSCLC was above 100 µM each time. Besides, the TGI in the assay on DMS 273 small cell lung, with XF 498 CNS, in the assay with NCI-H23 lung and in the assay with SNB-78 CNS was above 100 µM throughout.

For `CC12OC(=O)C(C#N)C1(C)C1C(=O)CCCC12` (centres undefined), the TGI in the assay on M14 melanoma, in the assay on KM20L2 colon, in the assay on NCI-H226 lung, with SNB-19 CNS, in the assay on EKVX NSCLC and in the assay on DMS 273 small cell lung was above 100 µM throughout. For the same compound, the TGI in the assay on XF 498 CNS and in the assay on NCI-H23 lung was above 100 µM each time.

Take `C[C@H](C(=O)O)C(=O)NC(=O)N(Cc1ccccc1)N=O`: the TGI with M14 melanoma, with KM20L2 colon, in the assay on HOP-62 NSCLC, in the assay on SNB-19 CNS, in the assay with EKVX NSCLC and with DMS 273 small cell lung was above 100 µM throughout. Moreover, the TGI in the assay with XF 498 CNS and in the assay with SNB-78 CNS was above 100 µM throughout.
